Test: solvent given as SMILES

C1CCCCC1
Details	solvation free energy, 298 K [kcal/mol]
in BrC(Br)C(Br)Br	-3.42
in Brc1cccc2ccccc12	-3.66
in Brc1ccccc1	-4.07
in C1=Cc2ccccc2C1	-3.92
in C1CCC(C2CCCCC2)CC1	-4.09
in C1CCNC1	-4.04
in C1CCNCC1	-4.32
in C1CCOC1	-4.23
in C1COCCO1	-3.66
in C=CCCCC	-4.22
in C=CCCCCCC	-4.18
in C=CCCCCCCCC	-4.12
in C=CCCCCCCCCCCCCCC	-3.89
in CC1CCS(=O)(=O)C1	-2.73
in CC1COC(=O)O1	-2.65
in CC#N	-3.03
in CC(=O)CC(C)C	-3.92
in CC(=O)O	-3.23
in CC(=O)OCc1ccccc1	-3.53
in CC(=O)c1ccccc1	-3.52
in CC(C)(C)O	-3.67
in CC(C)=O	-3.58
in CC(C)CC(C)(C)C	-4.15
in CC(C)CCCC(C)CCCC(C)CCCCC(C)CCCC(C)CCCC(C)C	-3.87
in CC(C)CCO	-3.77
in CC(C)CO	-3.93
in CC(C)O	-3.52
in CC(C)OC(C)C	-4.18
in CCBr	-4.31
in CCC#N	-3.57
in CCC(C)(C)OC	-4.3
in CCC(C)=O	-3.79
in CCC(C)O	-3.64
in CCCC#N	-3.45
in CCCC(=O)OCC	-3.93
in CCCC(C)=O	-3.82
in CCCCC	-4.25
in CCCCC#N	-3.58
in CCCCC(CC)COC(=O)CCCCC(=O)OCC(CC)CCCC	-3.77
in CCCCC(CC)COC(=O)c1ccccc1C(=O)OCC(CC)CCCC	-3.6
in CCCCCC	-4.24
in CCCCCC#N	-3.66
in CCCCCC(C)=O	-3.86
in CCCCCCC	-4.2
in CCCCCCCC	-4.18
in CCCCCCCCC	-4.13
in CCCCCCCCC=CCCCCCCCC(=O)OCC(COC(=O)CCCCCCCC=CCCCCCCCC)OC(=O)CCCCCCCC=CCCCCCCCC	-3.86
in CCCCCCCCCC	-4.11
in CCCCCCCCCCCC	-4.03
in CCCCCCCCCCCCCC	-3.91
in CCCCCCCCCCCCCCCC	-3.97
in CCCCCCCCCCCCO	-3.7
in CCCCCCCCCCO	-3.42
in CCCCCCCCN(CCCCCCCC)CCCCCCCC	-3.86
in CCCCCCCCO	-3.73
in CCCCCCCO	-3.72
in CCCCCCO	-3.75
in CCCCCCOC(C)=O	-3.93
in CCCCCN(CCCCC)CCCCC	-4.01
in CCCCCO	-3.71
in CCCCCl	-4.17
in CCCCN(C=O)CCCC	-3.67
in CCCCN(CCCC)CCCC	-3.92
in CCCCO	-3.7
in CCCCOC	-4.2
in CCCCOC(=O)c1ccccc1C(=O)OCCCC	-3.73
in CCCCOC(C)=O	-3.91
in CCCCOCC	-4.07
in CCCCOCCCC	-4.13
in CCCO	-3.59
in CCCOCCC	-4.12
in CCN1CCCC1=O	-3.39
in CCN(CC)C(C)=O	-3.55
in CCN(CC)CC	-4.23
in CCNC(C)=O	-3.41
in CCNC=O	-3.22
in CCO	-3.5
in CCOC(=O)c1ccccc1C(=O)OCC	-3.24
in CCOC(C)(C)C	-4.17
in CCOC(C)=O	-3.78
in CCOCC	-4.19
in CCOCCO	-3.41
in CCOCCOCCOCC	-3.81
in CCOc1ccccc1	-3.89
in CN1CCCC1=O	-3.18
in CN1CCCCC1=O	-3.37
in CN1CCN(C)C1=O	-3.07
in CN(C)P(=O)(N(C)C)N(C)C	-3.47
in CNC(C)=O	-3.26
in CNC=O	-2.93
in CO	-3.25
in COC(C)(C)C	-4.16
in COC(C)=O	-3.61
in COCCO	-3.15
in COc1ccccc1	-3.84
in CS(C)=O	-2.5
in Cc1ccc(C)cc1	-4.17
in Cc1cccc2ccccc12	-3.8
in Cc1cccc(O)c1	-3.42
in Cc1ccccc1	-4.2
in Cc1ccccn1	-3.91
in ClC(Cl)(Cl)Cl	-4.44
in ClC(Cl)C(Cl)Cl	-3.76
in ClC(Cl)Cl	-4.33
in ClCCCl	-3.93
in ClCCl	-4.1
in Clc1cccc2ccccc12	-3.88
in Clc1ccccc1	-4.22
in FC(F)(F)C(F)(F)C(F)(F)C(F)(F)C(F)(F)C(F)(F)C(F)(F)C(F)(F)F	-2.65
in FC(F)(F)C(F)(F)C(F)(F)C(F)(F)C(F)(F)C(F)(F)F	-2.71
in Fc1ccccc1	-4.12
in ICI	-3.06
in N#CCCCC#N	-2.17
in N#CCCCCC#N	-2.51
in N#CCCOCCC#N	-2.24
in N#CCc1ccccc1	-3.16
in N#Cc1ccccc1	-3.54
in NC=O	-1.36
in NCCO	-1.69
in NCc1ccccc1	-3.46
in Nc1ccccc1	-3.07
in O	1.22
in O=C1CCCCC1	-3.85
in O=C1CCCO1	-2.81
in O=C(O)C(Cl)Cl	-3.29
in O=CN1CCOCC1	-2.65
in O=Cc1ccco1	-3.01
in OC1CCCCC1	-3.69
in OCCCCCO	-2.61
in OCCCCO	-2.53
in OCCCO	-2.19
in OCCO	-1.5
in OCCOCCO	-2.16
in OCCOCCOCCO	-2.26
in OCCOCCOCCOCCO	-2.34
in OCCS	-2.58
in OCCc1ccccc1	-3.32
in OCc1ccccc1	-3.23
in OCc1ccco1	-2.94
in S=C=S	-4.49
in c1ccc2c(c1)CCCC2	-4.1
in c1ccc2ncccc2c1	-3.61
in c1ccc(C2CCCCC2)cc1	-4.03
in c1ccccc1	-4.23
in c1ccncc1	-3.75
